Experimental data: ChEMBL document CHEMBL1201862, “PubChem BioAssay data set” (2004)
Active and inactive are the calls of the source.

Columns and labels:
Bcl-2-like protein 10 = biological target: T1, Bcl-2-like protein 10 (Homo sapiens, UniProt Q9HD36); test: Concentration-response of Bcl-B inhibitors by biochemical FP with TR3 (AID 1243); format: functional
T1 sequence (Q9HD36 whole entry): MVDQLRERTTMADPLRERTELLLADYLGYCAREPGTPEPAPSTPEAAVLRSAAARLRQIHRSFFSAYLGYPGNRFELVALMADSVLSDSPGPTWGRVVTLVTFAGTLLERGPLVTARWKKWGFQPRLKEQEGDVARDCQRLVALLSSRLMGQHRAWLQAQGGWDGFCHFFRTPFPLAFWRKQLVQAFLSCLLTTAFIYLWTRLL

Mucolipin-3 = Mucolipin-3 (Homo sapiens, UniProt Q8TDD5); test: Dose response cell-based high-throughput screening assay for agonists of the transient receptor potential channel ML3 (TRPML3). [Related pubchem assays: 1526, 1424, 1448 ]; format: functional
Sequence of Mucolipin-3 (Q8TDD5 whole entry): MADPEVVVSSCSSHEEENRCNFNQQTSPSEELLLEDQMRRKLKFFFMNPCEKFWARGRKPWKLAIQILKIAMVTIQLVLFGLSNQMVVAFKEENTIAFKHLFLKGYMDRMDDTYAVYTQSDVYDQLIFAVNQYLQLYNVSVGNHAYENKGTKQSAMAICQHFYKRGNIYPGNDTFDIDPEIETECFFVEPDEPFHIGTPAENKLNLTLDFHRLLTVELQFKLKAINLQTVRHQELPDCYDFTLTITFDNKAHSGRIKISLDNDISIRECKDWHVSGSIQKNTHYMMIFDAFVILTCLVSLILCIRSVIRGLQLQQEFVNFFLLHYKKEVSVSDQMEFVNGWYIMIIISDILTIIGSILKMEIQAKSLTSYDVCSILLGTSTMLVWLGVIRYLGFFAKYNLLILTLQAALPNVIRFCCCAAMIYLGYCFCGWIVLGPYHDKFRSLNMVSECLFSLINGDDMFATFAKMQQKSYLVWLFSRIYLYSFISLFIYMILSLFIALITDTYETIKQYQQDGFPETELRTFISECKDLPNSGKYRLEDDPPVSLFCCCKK

Ion channel NompC = Ion channel NompC (Danio rerio, UniProt Q7T1G6); test: Fluorescence counterscreen assay for TRPML3 agonists: dose response cell-based high-throughput screening assay to identify agonists of the transient receptor potential channel N1 (TRPN1). [Related pubchem assays: 1526, 1424, 1448 ]; format: functional
Sequence of Ion channel NompC (Q7T1G6 whole entry): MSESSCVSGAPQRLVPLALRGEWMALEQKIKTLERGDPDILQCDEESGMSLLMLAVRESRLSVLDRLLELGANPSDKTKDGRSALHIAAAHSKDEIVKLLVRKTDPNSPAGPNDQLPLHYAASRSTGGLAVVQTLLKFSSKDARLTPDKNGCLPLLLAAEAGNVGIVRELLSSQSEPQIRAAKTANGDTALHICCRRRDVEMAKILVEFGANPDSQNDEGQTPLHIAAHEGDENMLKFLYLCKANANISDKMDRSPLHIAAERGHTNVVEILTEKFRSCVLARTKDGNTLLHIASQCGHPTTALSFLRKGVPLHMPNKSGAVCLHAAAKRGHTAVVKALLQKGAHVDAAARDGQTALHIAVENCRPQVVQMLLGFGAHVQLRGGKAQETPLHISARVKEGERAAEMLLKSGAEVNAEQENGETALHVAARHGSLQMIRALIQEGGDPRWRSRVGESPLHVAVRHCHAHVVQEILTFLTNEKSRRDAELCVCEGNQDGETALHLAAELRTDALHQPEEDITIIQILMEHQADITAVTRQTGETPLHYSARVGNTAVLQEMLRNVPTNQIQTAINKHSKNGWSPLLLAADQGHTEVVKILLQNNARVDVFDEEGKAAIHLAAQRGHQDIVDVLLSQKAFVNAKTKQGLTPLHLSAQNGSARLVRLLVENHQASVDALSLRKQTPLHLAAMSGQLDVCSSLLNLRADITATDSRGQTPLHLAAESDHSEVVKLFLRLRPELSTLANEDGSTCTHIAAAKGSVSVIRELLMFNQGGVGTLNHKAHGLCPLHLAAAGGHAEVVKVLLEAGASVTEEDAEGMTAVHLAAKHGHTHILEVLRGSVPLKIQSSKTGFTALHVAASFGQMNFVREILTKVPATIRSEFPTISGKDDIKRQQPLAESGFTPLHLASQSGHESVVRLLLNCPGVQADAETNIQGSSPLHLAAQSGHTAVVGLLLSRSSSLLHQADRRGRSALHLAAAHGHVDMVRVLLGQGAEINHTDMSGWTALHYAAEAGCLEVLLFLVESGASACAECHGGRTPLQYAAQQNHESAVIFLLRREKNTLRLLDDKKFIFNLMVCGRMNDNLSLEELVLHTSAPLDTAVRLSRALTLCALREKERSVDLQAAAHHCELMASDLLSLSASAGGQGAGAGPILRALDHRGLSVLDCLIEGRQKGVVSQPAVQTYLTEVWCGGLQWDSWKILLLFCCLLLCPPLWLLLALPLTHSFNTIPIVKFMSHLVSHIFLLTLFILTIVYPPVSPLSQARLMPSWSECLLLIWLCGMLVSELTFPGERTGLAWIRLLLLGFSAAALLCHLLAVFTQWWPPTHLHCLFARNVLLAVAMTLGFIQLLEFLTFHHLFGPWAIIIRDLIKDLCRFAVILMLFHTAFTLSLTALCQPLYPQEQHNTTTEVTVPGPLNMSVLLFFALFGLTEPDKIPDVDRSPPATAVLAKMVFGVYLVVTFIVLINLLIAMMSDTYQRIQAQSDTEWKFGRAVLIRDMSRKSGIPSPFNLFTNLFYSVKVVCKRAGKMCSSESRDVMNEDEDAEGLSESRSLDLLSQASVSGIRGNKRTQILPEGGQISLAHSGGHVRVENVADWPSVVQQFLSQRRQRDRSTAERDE

[1] = biological target: T2, Short transient receptor potential channel 4 (Mus musculus, UniProt Q9QUQ5); test: calcium entry via TRPC4 opening agents – cell-based, HEK293 TRPC4/mu-opioid, Fluo-4 calcium, dose response (AID 434937); format: functional
T2 sequence (Q9QUQ5 whole entry): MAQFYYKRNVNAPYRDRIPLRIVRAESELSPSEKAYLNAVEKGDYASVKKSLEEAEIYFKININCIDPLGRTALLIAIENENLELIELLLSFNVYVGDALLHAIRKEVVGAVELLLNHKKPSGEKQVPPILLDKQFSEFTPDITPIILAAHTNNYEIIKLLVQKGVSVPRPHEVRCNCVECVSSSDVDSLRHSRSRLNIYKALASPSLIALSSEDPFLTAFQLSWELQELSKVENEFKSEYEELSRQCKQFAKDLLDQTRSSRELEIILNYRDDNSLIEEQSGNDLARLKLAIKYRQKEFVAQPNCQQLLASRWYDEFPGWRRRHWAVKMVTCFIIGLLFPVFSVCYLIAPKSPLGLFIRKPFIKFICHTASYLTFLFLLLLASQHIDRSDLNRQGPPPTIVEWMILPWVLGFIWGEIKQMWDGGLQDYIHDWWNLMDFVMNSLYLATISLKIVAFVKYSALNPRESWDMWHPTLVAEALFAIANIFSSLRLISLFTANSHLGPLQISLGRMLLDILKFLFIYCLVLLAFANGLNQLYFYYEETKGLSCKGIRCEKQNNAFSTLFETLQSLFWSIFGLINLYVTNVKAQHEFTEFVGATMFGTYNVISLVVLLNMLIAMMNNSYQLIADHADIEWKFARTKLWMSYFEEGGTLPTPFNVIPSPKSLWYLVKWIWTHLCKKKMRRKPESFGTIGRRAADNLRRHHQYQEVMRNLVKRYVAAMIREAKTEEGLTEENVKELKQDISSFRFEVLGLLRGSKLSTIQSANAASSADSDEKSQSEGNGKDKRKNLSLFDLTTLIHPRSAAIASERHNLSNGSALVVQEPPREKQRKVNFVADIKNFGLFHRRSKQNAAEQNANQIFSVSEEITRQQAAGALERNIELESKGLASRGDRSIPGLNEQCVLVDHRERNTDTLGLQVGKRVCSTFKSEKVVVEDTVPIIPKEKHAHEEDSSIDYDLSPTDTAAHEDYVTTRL

[2] = biological target: T3, High affinity choline transporter 1 (Homo sapiens, UniProt Q9GZV3); test: human choline transporter blockers, potency – cell-based, 5-point CRC, membrane potential dye, dose response (AID 504840); format: functional
T3 sequence (Q9GZV3 whole entry): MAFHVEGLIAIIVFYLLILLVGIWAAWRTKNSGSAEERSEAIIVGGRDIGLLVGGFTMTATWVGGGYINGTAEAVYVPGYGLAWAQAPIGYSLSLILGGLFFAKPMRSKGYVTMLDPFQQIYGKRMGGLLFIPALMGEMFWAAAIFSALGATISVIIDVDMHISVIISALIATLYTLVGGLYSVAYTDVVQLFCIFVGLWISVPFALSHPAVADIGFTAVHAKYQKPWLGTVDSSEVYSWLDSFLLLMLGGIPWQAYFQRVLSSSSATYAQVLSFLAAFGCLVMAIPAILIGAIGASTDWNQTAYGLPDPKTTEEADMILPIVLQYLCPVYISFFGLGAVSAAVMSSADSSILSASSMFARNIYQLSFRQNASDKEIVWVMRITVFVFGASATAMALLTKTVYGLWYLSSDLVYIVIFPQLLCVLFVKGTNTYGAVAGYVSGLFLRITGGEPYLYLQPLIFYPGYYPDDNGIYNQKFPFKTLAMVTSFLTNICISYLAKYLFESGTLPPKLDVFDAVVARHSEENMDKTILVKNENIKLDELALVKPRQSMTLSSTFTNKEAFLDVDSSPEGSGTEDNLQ

[3] = biological target: T4, Corticotropin-releasing factor receptor 2/Corticotropin-releasing factor-binding protein (Homo sapiens, UniProt P24387+Q13324); test: activators of CRF receptor 2 with binding protein – uHTS hits, confirmation (AID 602473); format: functional; settings: read-out: EC50_Mean
T4 sequence (Q13324 whole entry): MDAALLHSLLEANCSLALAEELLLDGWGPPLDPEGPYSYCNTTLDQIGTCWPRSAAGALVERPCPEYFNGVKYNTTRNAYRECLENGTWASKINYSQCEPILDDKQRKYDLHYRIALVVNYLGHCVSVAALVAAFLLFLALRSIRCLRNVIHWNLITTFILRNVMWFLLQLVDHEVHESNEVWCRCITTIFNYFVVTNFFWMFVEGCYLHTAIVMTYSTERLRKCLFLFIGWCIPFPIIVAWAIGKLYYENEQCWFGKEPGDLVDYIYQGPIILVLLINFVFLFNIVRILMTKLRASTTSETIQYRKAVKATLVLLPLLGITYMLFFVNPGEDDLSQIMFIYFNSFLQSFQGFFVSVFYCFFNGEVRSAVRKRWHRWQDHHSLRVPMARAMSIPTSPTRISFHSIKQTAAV
T4 sequence (P24387 whole entry): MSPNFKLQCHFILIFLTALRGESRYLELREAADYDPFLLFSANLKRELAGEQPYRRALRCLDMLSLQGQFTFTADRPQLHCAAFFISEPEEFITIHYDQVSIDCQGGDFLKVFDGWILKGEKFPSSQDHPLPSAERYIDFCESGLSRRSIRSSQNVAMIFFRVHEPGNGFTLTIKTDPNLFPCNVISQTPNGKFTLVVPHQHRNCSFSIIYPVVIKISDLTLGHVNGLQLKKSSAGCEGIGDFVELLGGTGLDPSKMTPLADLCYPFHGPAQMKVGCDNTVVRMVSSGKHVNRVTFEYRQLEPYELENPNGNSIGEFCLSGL

Estrogen receptor = biological target: T5, Estrogen receptor (Homo sapiens, UniProt P03372); test: ERα coactivator recruitment enhancers – biochemical, TR-FRET, ERα LBD, dose response (AID 737)
T5 sequence (P03372 whole entry): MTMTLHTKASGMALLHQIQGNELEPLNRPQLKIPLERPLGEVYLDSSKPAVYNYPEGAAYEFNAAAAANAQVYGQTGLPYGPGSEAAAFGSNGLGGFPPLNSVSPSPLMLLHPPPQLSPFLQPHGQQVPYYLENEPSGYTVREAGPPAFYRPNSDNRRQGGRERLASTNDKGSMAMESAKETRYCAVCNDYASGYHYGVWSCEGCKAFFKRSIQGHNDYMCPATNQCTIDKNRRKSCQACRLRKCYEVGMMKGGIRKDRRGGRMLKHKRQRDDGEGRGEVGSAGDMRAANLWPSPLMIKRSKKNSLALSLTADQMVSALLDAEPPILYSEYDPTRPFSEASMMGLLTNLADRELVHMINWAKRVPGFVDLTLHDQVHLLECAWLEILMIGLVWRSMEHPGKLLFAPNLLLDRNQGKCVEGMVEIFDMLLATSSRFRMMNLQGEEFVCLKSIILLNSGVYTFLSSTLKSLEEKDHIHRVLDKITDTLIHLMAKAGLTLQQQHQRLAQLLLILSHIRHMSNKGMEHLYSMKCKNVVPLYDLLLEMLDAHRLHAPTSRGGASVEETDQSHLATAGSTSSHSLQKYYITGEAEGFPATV

[4] = biological target: Epstein-Barr nuclear antigen 1 (Epstein-Barr virus (strain B95-8) (HHV-4) (Human herpesvirus 4), UniProt P03211); test: inhibition of EBV nuclear antigen 1 DNA binding – biochemical, fluorescence polarization, 1536-well, dose response (AID 2381); set-up: species or system human gammaherpesvirus 4;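 note: fluorescence polarization of a Cy5 DNA probe bound by EBNA-1 protein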
Sequence of Epstein-Barr nuclear antigen 1 (P03211 whole entry): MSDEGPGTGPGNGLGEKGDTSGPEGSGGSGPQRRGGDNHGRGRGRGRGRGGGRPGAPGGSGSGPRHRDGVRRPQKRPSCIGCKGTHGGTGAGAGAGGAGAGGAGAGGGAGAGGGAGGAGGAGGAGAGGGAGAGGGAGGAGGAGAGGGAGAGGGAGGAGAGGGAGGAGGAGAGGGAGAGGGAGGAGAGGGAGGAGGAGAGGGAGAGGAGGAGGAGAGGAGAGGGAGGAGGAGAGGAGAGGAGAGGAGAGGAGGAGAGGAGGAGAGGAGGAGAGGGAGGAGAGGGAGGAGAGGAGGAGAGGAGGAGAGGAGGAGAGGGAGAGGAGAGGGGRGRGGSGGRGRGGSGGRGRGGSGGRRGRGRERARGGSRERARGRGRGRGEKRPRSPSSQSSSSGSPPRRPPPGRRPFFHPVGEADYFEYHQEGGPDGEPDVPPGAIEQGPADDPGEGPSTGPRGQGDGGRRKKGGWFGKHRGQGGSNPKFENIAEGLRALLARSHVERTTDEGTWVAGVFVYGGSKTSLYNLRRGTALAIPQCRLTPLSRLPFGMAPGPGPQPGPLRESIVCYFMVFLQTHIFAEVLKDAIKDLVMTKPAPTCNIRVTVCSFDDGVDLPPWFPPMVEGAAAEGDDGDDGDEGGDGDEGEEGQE

[5] = biological target: Lytic switch protein BZLF1 (Epstein-Barr virus (strain B95-8) (HHV-4) (Human herpesvirus 4), UniProt P03206); test: inhibition of BZLF1 ZTA DNA binding – biochemical, fluorescence polarization, Epstein-Barr virus, 1536-well, counter-screen for EBNA-1 inhibitor project, dose response (AID 2377); set-up: species or system human gammaherpesvirus 4;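 note: fluorescence polarization of Cy5-labelled ZRE DNA probe bound by purified Zta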
Sequence of Lytic switch protein BZLF1 (P03206 whole entry): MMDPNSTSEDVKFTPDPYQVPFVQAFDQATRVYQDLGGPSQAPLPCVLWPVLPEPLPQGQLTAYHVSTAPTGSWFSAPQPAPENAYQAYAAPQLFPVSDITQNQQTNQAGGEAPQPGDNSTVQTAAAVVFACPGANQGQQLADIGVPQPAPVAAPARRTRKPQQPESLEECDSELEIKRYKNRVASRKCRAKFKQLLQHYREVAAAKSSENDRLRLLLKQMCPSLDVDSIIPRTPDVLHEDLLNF

Cc1ccc(C)n1-c1ccc(Cl)cc1C(=O)O
EC50 (Bcl-2-like protein 10): 940 nM (active)

O=C(NC(=S)NNC(=O)c1cccs1)c1ccc(Br)o1
EC50 (Mucolipin-3): 5.99 µM (active)
EC50 (Ion channel NompC): 5.44 µM (active)
EC50 [1]: 5.31 µM (active)
IC50 [2]: 28.8 µM (active)
EC50 [3]: 12.2 µM (active)

O=C(NCCCCCCNC(=O)c1ccc(Br)s1)c1ccc(Br)s1
EC50 (Estrogen receptor): 12.8 µM (not active)

COc1ccc(CNc2nc(NCc3ccc(OC)cc3)n(C(C)=O)n2)cc1
IC50 [4]: 37.8 µM (not active)
IC50 [5]: > 111 µM (not active)
